# From patent publication US5486597A, “Tetrapeptide derivatives and analogues” (James Black Foundation Limited, priority 1990, dated 1996)
# What was measured:
# Format in all cases: cell-based
# [1] = biological target: T1, gastrin receptor (Mus musculus, UniProt P56481); experiment: mouse stomach assay for gastrin activity (isolated stomach, acid secretion); conditions: for pKB mouse stomach: isolated mouse stomach assay, gastrin antagonism, standard errors less than 5%; for Acid seretion at 10^-5 M test compound, relative to pentagastrin (%): mouse stomach, NS = not significant
# T1 construct: assayed for gastrin activity using the mouse stomach assay; from tissue; host or cells: isolated mouse stomach
# T1 sequence (P56481 1-453): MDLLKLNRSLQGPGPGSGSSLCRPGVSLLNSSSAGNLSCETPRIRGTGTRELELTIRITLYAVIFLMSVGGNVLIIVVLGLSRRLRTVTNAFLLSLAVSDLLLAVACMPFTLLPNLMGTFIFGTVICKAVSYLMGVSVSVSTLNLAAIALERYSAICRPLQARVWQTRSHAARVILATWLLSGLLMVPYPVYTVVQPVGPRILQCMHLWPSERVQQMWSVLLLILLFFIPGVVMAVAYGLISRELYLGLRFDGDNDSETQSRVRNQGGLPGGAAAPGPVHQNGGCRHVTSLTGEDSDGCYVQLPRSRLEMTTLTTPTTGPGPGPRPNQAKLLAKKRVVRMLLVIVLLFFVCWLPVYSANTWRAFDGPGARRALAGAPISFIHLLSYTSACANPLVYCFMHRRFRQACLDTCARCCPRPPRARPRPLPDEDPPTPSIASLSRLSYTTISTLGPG
# Method: The compounds were assayed for gastrin activity using the mouse stomach assay as described by Black, J. W. and Shankley, N. P., Br. J. Pharmacol., 86, 571-579, (1985), and also in the guinea-pig fundus assay, as follows: […]
# [2] = biological target: T2, gastrin receptor (Cavia porcellus, UniProt H0VZC5); experiment: guinea-pig fundus assay for gastrin activity (stomach muscle strips); conditions: 10^-8 M devazepide present, 60 minute equilibration, agonist e.g. pentagastrin, standard errors less than 5%
# T2 construct: Strips of muscle (approximately 2.5 cm by 1 cm) are removed from the proximal area of the stomach; from tissue; host or cells: guinea-pig proximal stomach (fundus) muscle strips
# T2 sequence (H0VZC5 1-426): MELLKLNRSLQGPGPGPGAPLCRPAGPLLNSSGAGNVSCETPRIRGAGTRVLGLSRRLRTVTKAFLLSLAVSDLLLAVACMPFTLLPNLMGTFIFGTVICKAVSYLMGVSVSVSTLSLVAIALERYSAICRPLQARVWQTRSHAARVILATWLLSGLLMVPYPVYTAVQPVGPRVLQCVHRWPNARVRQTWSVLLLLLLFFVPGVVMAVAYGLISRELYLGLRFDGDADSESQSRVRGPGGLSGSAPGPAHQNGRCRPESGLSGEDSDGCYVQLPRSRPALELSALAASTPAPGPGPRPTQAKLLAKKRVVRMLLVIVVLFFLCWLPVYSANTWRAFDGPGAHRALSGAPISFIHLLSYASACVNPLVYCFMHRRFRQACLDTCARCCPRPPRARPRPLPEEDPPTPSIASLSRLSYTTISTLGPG
# Procedure, shortened: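 Proximal stomach muscle strips from male Dunkin-Hartley guinea-pigs were mounted on isotonic transducers at 0.35 g in gassed Krebs containing 10^-8 M devazepide to block CCK receptors, with 10 mM KCl added. Test compounds were equilibrated 60 min before cumulative pentagastrin dose-response curves were run.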
# [3] = biological target: T3, cholecystokinin receptors (Cavia porcellus, UniProt Q63931); experiment: CCK-antagonist activity in isolated guinea-pig gall-bladder strip preparations; conditions: guinea-pig gall-bladder strips; CCK-8 as agonist; test compound incubated for 60 minutes; standard errors less than 5%
# T3 construct: Isolated, strip preparations were prepared from gall-bladders removed from male Dunkin-Hartley guinea-pigs; from tissue; host or cells: guinea-pig gall-bladder strips
# T3 sequence (Q63931 1-430): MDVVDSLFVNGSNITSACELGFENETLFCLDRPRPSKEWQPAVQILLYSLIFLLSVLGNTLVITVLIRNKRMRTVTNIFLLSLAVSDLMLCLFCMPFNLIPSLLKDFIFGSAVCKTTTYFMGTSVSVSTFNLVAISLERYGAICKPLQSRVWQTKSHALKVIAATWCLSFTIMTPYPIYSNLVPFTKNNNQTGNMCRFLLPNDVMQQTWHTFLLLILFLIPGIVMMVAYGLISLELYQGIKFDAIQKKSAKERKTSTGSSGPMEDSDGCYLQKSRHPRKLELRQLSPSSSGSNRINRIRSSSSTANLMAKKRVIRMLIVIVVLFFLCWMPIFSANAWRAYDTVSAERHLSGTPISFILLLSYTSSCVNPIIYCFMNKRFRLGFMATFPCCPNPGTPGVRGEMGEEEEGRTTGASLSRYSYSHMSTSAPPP
# Procedure, shortened: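 Male Dunkin-Hartley guinea-pig gall-bladder strips under 1 g isometric tension in Krebs (0.5 mM Ca²⁺), 37° C, 95% O2/5% CO2, stabilised 90 min. Cumulative CCK-8 concentration-effect curves without and with test compound (60 min preincubation); antagonism expressed as […] by modified competitive analysis.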
Molecule,pKB mouse stomach [1],"Acid seretion at 10^-5 M test compound, relative to pentagastrin (%) [1]",pKB [2],pKB [3]
"CC(C)(C)OC(=O)N[C@@H](Cc1c[nH]c2ccccc12)C(=O)N[C@@H](Cc1ccc2ccccc2c1)C(=O)N[C@@H](CC(=O)O)C(=O)NCCc1ccc(Cl)c(Cl)c1 [Example 42, N-t-Butyloxycarbonyl-L-tryptophyl-L-3-(2-naphthyl)alanyl-L-aspartyl-3,4-dichlorophenethylamide]",5.2,30%,5.3,6.0
"CC(C)(C)OC(=O)N[C@@H](Cc1c[nH]c2ccccc12)C(=O)N[C@@H](Cc1ccc2ccccc2c1)C(=O)N[C@@H](CC(=O)O)C(=O)NCCc1ccc(N)cc1 [Example 46, N-t-Butyloxycarbonyl-L-tryptophyl-L-3-(2-naphthyl)alanyl-L-aspartyl-4-aminophenethylamide]",5.6,–,6.0,6.5
"CC(C)(C)OC(=O)N[C@@H](Cc1c[nH]c2ccccc12)C(=O)N[C@@H](Cc1ccc2ccccc2c1)C(=O)N[C@@H](CC(=O)O)C(=O)NCCc1ccc(F)cc1 [Example 47, N-t-Butyloxycarbonyl-L-tryptophyl-L-3-(2-naphthyl)alanyl-L-aspartyl-4-fluorophenethylamide]",5.5,25%,5.8,6.7
"CC(C)(C)OC(=O)N[C@@H](Cc1c[nH]c2ccccc12)C(=O)N[C@@H](Cc1ccc2ccccc2c1)C(=O)N[C@H](CC(=O)O)C(=O)NCCc1ccc(F)cc1 [Example 52, N-t-Butyloxycarbonyl-L-tryptophyl-L-3-(2-naphthyl)alanyl-D-aspartyl-4-fluorophenethylamide]",5.6,25%,5.9,6.4
"CC(C)(C)OC(=O)N[C@@H](Cc1c[nH]c2ccccc12)C(=O)N[C@@H](Cc1ccc2ccccc2c1)C(=O)N[C@@H](CC(=O)O)C(=O)NCCc1ccccc1F [Example 54, N-t-Butyloxycarbonyl-L-tryptophyl-L-3-(2-naphthyl)alanyl-L-aspartyl-2-fluorophenethylamide]",5.4,25%,6.2,6.4
"COc1cccc(CCNC(=O)[C@H](CC(=O)O)NC(=O)[C@H](Cc2ccc3ccccc3c2)NC(=O)[C@H](Cc2c[nH]c3ccccc23)NC(=O)OC(C)(C)C)c1 [Example 56, N-t-Butyloxycarbonyl-L-tryptophyl-L-3-(2-naphthyl)alanyl-L-aspartyl-3-methoxyphenethylamide]",5.6,–,5.5,7.2
"CC(C)(C)OC(=O)N[C@@H](Cc1c[nH]c2ccccc12)C(=O)N[C@@H](Cc1ccc2ccccc2c1)C(=O)N[C@@H](CC(=O)O)C(=O)NCCc1cccc(F)c1 [Example 65, N-t-Butyloxycarbonyl-L-tryptophyl-L-3-(2-naphthyl)alanyl-L-aspartyl-3-fluorophenethylamide]",5.3,–,6.1,6.7
N-t-Butyloxycarbonyl-L-tryptophyl-L-3-(2-naphthyl)alanyl-L-aspartylphenethylamide [Example 2],5.6,20%,5.9,6.9
